# Measurements as given in ChEMBL document CHEMBL2375353, “Efficient induction of apoptosis in HeLa cells by a novel cationic porphycene photosensitizer” (Eur J Med Chem, 2013).
# Active and inactive are the calls of the source. The rule behind the calls is not given here.
# Assays:
# HeLa [1] = experiment: Induction of apoptosis in human HeLa cells assessed as reduction in cell volume at 0.5 uM incubated for 18 hrs followed by red light irradiation measured after 3 hrs by Hoechst-33258 staining; format: functional, cell-based
# HeLa [2] = experiment: Induction of apoptosis in human HeLa cells assessed as relocalization of proapoptotic Bax protein within mitochondria at 0.5 uM incubated for 18 hrs prior to red light irradiation measured after 3 to 24 hrs by indirect immunofluorescence; format: functional, cell-based
# HeLa [3] = experiment: Induction of apoptosis in human HeLa cells assessed as swollen mitochondria at 0.5 uM incubated for 18 hrs prior to red light irradiation measured after 3 hrs by immunofluorescence method; format: functional, cell-based
# HeLa [4] = experiment: Drug uptake in human HeLa cells at 0.75 uM after 18 hrs by fluorescence microscopy; format: ADME, cell-based
# HeLa [5] = experiment: Induction of apoptosis in human HeLa cells assessed as changes in microtubules and actin microfilament alteration at 0.75 to 0.5 uM after 18 hrs by immunostaining assay; format: cell-based
# HeLa [6] = experiment: Drug uptake in human HeLa cells assessed as localization to lysosome at 0.5 uM after 18 hrs by prior to UV irradiation by fluorescence microscopy; format: ADME, cell-based
# HeLa [7] = experiment: Induction of apoptosis in human HeLa cells at 0.75 to 0.5 uM after 18 hrs by neutral red staining; format: cell-based
# HeLa [8] = experiment: Induction of necrosis in human HeLa cells at 0.75 uM incubated for 18 hrs followed by red light irradiation by Hoechst-33258 staining; format: functional, cell-based
# HeLa [9] = experiment: Phototoxicity against human HeLa cells at 1 uM incubated for 18 hrs prior to 1.2 J/cm'2 red light irradiation by MTT assay; format: functional, cell-based
# HeLa [10] = experiment: Induction of ROS generation in human HeLa cells assessed as cell survival at 0.5 uM incubated for 18 hrs prior to red light irradiation measured after 24 hrs by MTT assay; format: functional; conditions: light or radiation study, read-out: Activity
# HeLa [11] = experiment: Induction of apoptosis in human HeLa cells assessed as volume reduction at 0.5 uM incubated for 18 hrs prior to red light irradiation measured after 3 hrs by neutral red staining; format: functional, cell-based
# HeLa [12] = experiment: Induction of apoptosis in human HeLa cells at 0.5 uM incubated for 18 hrs prior to red light irradiation measured after 6 hrs by TUNEL assay; format: functional, cell-based
# HeLa [13] = experiment: Induction of apoptosis in human HeLa cells assessed as reduction in vinculin expression at 0.5 uM incubated for 18 hrs followed by red light irradiation measured after 6 hrs by immunostaining assay; format: functional, cell-based
# HeLa [14] = experiment: Phototoxicity against human HeLa cells at 0.75 uM incubated for 18 hrs prior to 3.6 J/cm'2 red light irradiation by MTT assay; format: functional, cell-based
# HeLa [15] = experiment: Induction of apoptosis in human HeLa cells at 0.5 uM incubated for 18 hrs prior to red light irradiation measured after 24 hrs; format: functional
# HeLa [16] = experiment: Induction of apoptosis in human HeLa cells assessed as apoptotic chromatin at 0.5 uM incubated for 18 hrs followed by red light irradiation measured after 6 hrs by immunostaining assay; format: functional, cell-based
# HeLa [17] = experiment: Induction of apoptosis in human HeLa cells at 0.5 uM incubated for 18 hrs followed by red light irradiation by Hoechst-33258 staining; format: functional
# HeLa [18] = experiment: Induction of apoptosis in human HeLa cells at 0.5 uM incubated for 18 hrs prior to red light irradiation measured after 6 to 24 hrs by Hoechst-33258 staining; format: functional, cell-based
# HeLa [19] = experiment: Darktoxicity against human HeLa cells at 1 uM after 18 hrs by MTT assay; format: cell-based
# HeLa [20] = experiment: Induction of ROS generation in human HeLa cells assessed as cell survival at 0.5 uM incubated for 18 hrs followed by NaN3 addition 2 hrs prior to red light irradiation measured after 24 hrs by MTT assay; format: functional; conditions: light or radiation study, read-out: Activity
# HeLa [21] = experiment: Darktoxicity against human HeLa cells at 0.75 uM after 18 hrs by MTT assay; format: cell-based
# HeLa [22] = experiment: Induction of apoptosis in human HeLa cells assessed as chromatin condensation at 0.5 uM incubated for 18 hrs prior to red light irradiation measured after 3 hrs by Hoechst-33258 staining; format: functional, cell-based
# HeLa [23] = experiment: Induction of apoptosis in human HeLa cells at 0.5 uM incubated for 18 hrs prior to red light irradiation measured after 6 to 24 hrs by neutral red staining; format: functional, cell-based
# HeLa [24] = experiment: Phototoxicity against human HeLa cells at 0.75 uM incubated for 18 hrs prior to red light irradiation measured after 3 to 24 hrs by trypan blue exclusion assay; format: functional, cell-based
# HeLa [25] = experiment: Induction of apoptosis in human HeLa cells assessed as microtubule alteration at 0.75 uM incubated for 18 hrs followed by red light irradiation after 3 to 24 hrs by […]; format: functional, cell-based
# HeLa [26] = experiment: Induction of apoptosis in human HeLa cells assessed as fragmented chromatin at 0.5 uM incubated for 18 hrs prior to red light irradiation measured after 6 hrs by immunofluorescence method; format: functional, cell-based
# HeLa [27] = experiment: Induction of apoptosis in human HeLa cells assessed as membrane bubble at 0.5 uM incubated for 18 hrs followed by red light irradiation measured after 6 hrs by immunostaining assay; format: functional, cell-based
# HeLa [28] = experiment: Induction of apoptosis in human HeLa cells assessed as microtubule alteration at 0.75 to 0.5 uM after 18 hrs by […]; format: cell-based
# HeLa [29] = experiment: Induction of apoptosis in human HeLa cells assessed as trypsin-mediated cell detachment incubated for 18 hrs prior to red light irradiation measured after 24 hrs by hemocytometer; format: functional, cell-based
# [30] = Darktoxicity against human HeLa cells assessed as cell survival at > 0.5 microM after 18 hrs by MTT assay; format: cell-based; conditions: read-out: Activity
# HeLa [31] = experiment: Induction of apoptosis in human HeLa cells assessed as relocalization of proapoptotic Bax protein within mitochondria at 0.75 to 0.5 uM after 18 hrs by indirect immunofluorescence; format: cell-based
# HeLa [32] = experiment: Induction of apoptosis in human HeLa cells at 0.75 to 0.5 uM after 18 hrs by Hoechst-33258 staining; format: cell-based
compound,measurement,setting,value
COCc1ccc(C2=Cc3nc2ccc2[nH]c(cc2-c2ccc(C[n+]4ccccc4)cc2)c2nc(ccc4[nH]c3cc4-c3ccc(C[n+]4ccccc4)cc3)C(c3ccc(C[n+]4ccccc4)cc3)=C2)cc1.[Br-].[Br-].[Br-],Activity,HeLa [1],Active
same,Activity,HeLa [2],Active
same,Activity,HeLa [3],Active
same,Drug uptake,HeLa [4],Active
same,Activity,HeLa [5],Non-toxic
same,Drug uptake,HeLa [6],Active
same,Activity,HeLa [7],Non-toxic
same,Activity,HeLa [8],Active
same,Activity,HeLa [9],Active
same,viability at 0.5 µM,HeLa [10],5.2%
same,Activity,HeLa [11],Active
same,Activity,HeLa [12],Active
same,Activity,HeLa [13],Active
same,Activity,HeLa [14],Active
same,Activity,HeLa [15],70%
same,Activity,HeLa [16],Active
same,Activity,HeLa [17],70%
same,Activity,HeLa [18],Active
same,Activity,HeLa [19],Toxic
same,viability at 0.5 µM,HeLa [20],72%
same,Activity,HeLa [21],Toxic
same,Activity,HeLa [22],Active
same,Activity,HeLa [23],Active
same,Activity,HeLa [24],Active
same,Activity,HeLa [25],Active
same,Activity,HeLa [26],Active
same,Activity,HeLa [27],Active
same,Activity,HeLa [28],Non-toxic
same,Activity,HeLa [29],Dose-dependent effect
same,viability at 18 h,[30],> 90%
same,Activity,HeLa [31],Non-toxic
same,Activity,HeLa [32],Non-toxic
